# Test system: adult patients with uncontrolled gout
# Assay: Serum uric acid (sUA) levels and sUA responder rate, open-label study of pegloticase with MTX (MIRROR OL)
# Type: in vivo, human
# Conditions: for Serum Uric Acid Change from Methotrexate Baseline, Mean (SD) / Serum Uric Acid Change from Methotrexate Baseline, Median / Serum Uric Acid, Observed, Mean (SD) / Serum Uric Acid, Observed, Median / sUA <6 mg/dL, n (%): mITT
# Description: The primary objective is to estimate the response rate during Month 6 (Weeks 20, 22, and 24), as measured by the sustained normalization of serum uric acid (SUA) to <6 mg/dL for at least 80% of the time during Month 6 in subjects receiving KXX with MTX.
# The primary efficacy outcome endpoint is the sustained normalization of SUA to <6 mg/dL for at least 80% of the time during month 6 (weeks 20, 22, and 24) in subjects receiving KXX with MTX. […] Participants who achieve this endpoint were classified as “responders.” Serum uric acid (SUA) responders may also be defined as participants achieving and maintaining SUA <6 mg/dL for at least 80% of the time during Month 6 (Weeks 20, 22, and 24).
# Blood samples may be collected prior to each pegloticase infusion for measurement of SUA levels using the Beckman Coulter AU System Uric Acid procedure. Participants were declared “non-responders” if there were SUA measures >6 mg/dL at 2 consecutive study visits beginning with the week 2 visit. […] This assumption and subsequent discontinuation of pegloticase was consistent with the protocol of large phase III randomized controlled trials and the product label. A formal stopping rule was 2 occasions of SUA levels of greater than 6 mg/dL.
# Clinical Chemistry—Blood samples were collected prior to each pegloticase infusion for measurement of SUA levels (primary efficacy parameter) using the Beckman Coulter AU System Uric Acid procedure. In this procedure uric acid is converted to hydrogen peroxide. Hydrogen peroxide reacts with reagent to produce a chromophore which is read bichromatically at 660/800 nm. The amount of dye formed is proportional to the uric acid concentration in the sample.
# Serum samples for measurement of SUA levels were collected at the Screening Visit, the Week −4 Visit (prior to the first dose of MTX), and the Week −2 Visit during the MTX Run-in Period; within 48 hours prior to each pegloticase infusion and after the end of each pegloticase infusion prior to discharge from the site during the Pegloticase+IMM Period; at the non-infusion Week 52/End of Study/Early Termination Visits and at the Post Treatment 3 and 6 Month Follow-up Visits. Additional serum samples for SUA levels were collected at optional non-infusion (Frequent Sampling) Visits at Weeks 1 and 7. […] Subjects with SUA level >6 mg/dL at 2 consecutive visits beginning at Week 2 visit discontinued treatment, completed the End of Pegloticase Infusion Visit procedures within 2 weeks and continued the subject visits according to the protocol (without treatment).
# Efficacy analyses were performed using the modified intention-to-treat (mITT) population, defined as all enrolled subjects who received ≥1 dose of pegloticase. The proportion of Month 6 responders was summarized, along with a 95% confidence interval for the proportion. The proportion of Month 3 and overall (Months 3 and 6 combined) responders was analyzed similarly.
# A subject was declared a non-responder if the subject had SUA level >6 mg/dL at 2 consecutive study visits beginning with the Week 2 Visit. In addition, a subject who withdraws from study treatment for any reason after the first dose of pegloticase in the KXX+MTX Period and prior to Month 6 (for the primary endpoint) or Month 3 (for the secondary endpoint) was considered a non-responder if SUA values were not collected at the planned time points.
# Patients were administered oral MTX (15 mg/week) and folate (1 mg/day) 4 weeks prior to the first pegloticase infusion (Day 1) and throughout the pegloticase treatment period. Blood was drawn prior to each infusion to measure sUA level, monitor clinical parameters, and examine for ADA development. All patients followed typical IR prophylaxis protocols (fexofenadine one day before and the morning of each infusion and acetaminophen and IV corticosteroid the morning of each infusion).
# [1] = Day 1 - Pre-Infusion (after MTX Run-in)
smiles,measurement,setting,value
"CN(Cc1cnc2nc(N)nc(N)c2n1)c1ccc(C(=O)N[C@@H](CCC(=O)O)C(=O)O)cc1 [MTX, methotrexate]",mean sUA,"Day 1, after 4-week MTX run-in, before first pegloticase infusion, 14 patients",9.2 ± 2.5 mg/dL
same,"Serum Uric Acid Change from Methotrexate Baseline, Mean (SD)",[1],0.25 (1.283) mg/dL
same,"Serum Uric Acid Change from Methotrexate Baseline, Median",[1],-0.25 mg/dL
same,"Serum Uric Acid, Observed, Mean (SD)",[1],9.16 (2.486) mg/dL
same,"Serum Uric Acid, Observed, Median",[1],9.00 mg/dL
same,"sUA <6 mg/dL, n (%)",[1],1 (7.1%)
same,"Serum Uric Acid Change from Methotrexate Baseline, Mean (SD)",Week - 2 (MTX Run-in),0.54 (0.839) mg/dL
same,"Serum Uric Acid Change from Methotrexate Baseline, Median",Week - 2 (MTX Run-in),0.50 mg/dL
same,"Serum Uric Acid, Observed, Mean (SD)",Week - 2 (MTX Run-in),9.45 (2.211) mg/dL
same,"Serum Uric Acid, Observed, Median",Week - 2 (MTX Run-in),9.30 mg/dL
same,"sUA <6 mg/dL, n (%)",Week - 2 (MTX Run-in),1 (7.1%)

# From patent publication US20220409620A1, “REDUCING IMMUNOGENICITY TO PEGLOTICASE” (Horizon Pharma Rheumatology LLC, priority 2016, published 2022)
